The record followed here is the supplement of paper PMC10307832.

What all share (assay): relative viability (nuclei count vs DMSO), 5 days (fraction); higher = more cells survive
Compound in test [1]: C1COCCN1C2=NC(=NC3=C2OC4=C3C=CC=N4)C5=CC(=CC=C5)NC(=O)C6=CN=C(C=C6)N + CC(=O)Nc1cccc(-n2c(=O)n(C3CC3)c(=O)c3c(Nc4ccc(I)cc4F)n(C)c(=O)c(C)c32)c1 [Trametinib] (partner 0.02 µM)
The method, boiled down:
(§1)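 After 5 days of treatment, lung cancer cells in 1536-well plates were fixed and stained in a single step (final 0.05% Triton X-100, 1% formaldehyde, 1 ug/ml Hoechst) and their nuclei counted on 4× images. Treatment had been applied by pin tool the day after seeding as one drug alone or as a fixed anchor-drug dose with five library-drug doses (not always all listed) in √10 steps. Relative viability is the nuclei count of treated wells divided by that of vehicle wells, and values are medians of duplicate plates.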

Compound in the test “SGI-1776 + Trametinib”: CN1CCC(CNc2ccc3ncc(-c4cccc(OC(F)(F)F)c4)n3n2)CC1 [SGI-1776] + CC(=O)Nc1cccc(-n2c(=O)n(C3CC3)c(=O)c3c(Nc4ccc(I)cc4F)n(C)c(=O)c(C)c32)c1 [Trametinib] (partner 0.02 µM)
The procedure, abridged: as §1

Compound in the test “Entinostat + AZD7762”: Nc1ccccc1NC(=O)c1ccc(CNC(=O)OCc2cccnc2)cc1 [Entinostat] + NC(=O)Nc1cc(-c2cccc(F)c2)sc1C(=O)N[C@H]1CCCNC1 [AZD7762] (partner 0.2 µM)
The procedure, abridged:
as §1

Compound in the test “Entinostat + Olaparib”: Nc1ccccc1NC(=O)c1ccc(CNC(=O)OCc2cccnc2)cc1 [Entinostat] + O=C(c1cc(Cc2n[nH]c(=O)c3ccccc23)ccc1F)N1CCN(C(=O)C2CC2)CC1 [Olaparib] (partner 8 µM)
The procedure, abridged: as §1

Take PC-3 [JPC-3]: the relative viability in test [1] (first compound 0.02 µM) came out at 0.65; in test [1] (first compound 0.06325 µM), 0.696; in test [1] (first compound 0.6325 µM) it was 0.843; in test [1] (first compound 2 µM), 0.659; with SGI-1776 + Trametinib (first compound 0.08 µM) it was 0.757; with SGI-1776 + Trametinib (first compound 0.8 µM), 0.73. Further, the relative viability was 0.656 with SGI-1776 + Trametinib (first compound 2.53 µM); 0.462 with SGI-1776 + Trametinib (first compound 8 µM); 1.06 with Entinostat + AZD7762 (first compound 0.02 µM); 0.804 with Entinostat + AZD7762 (first compound 0.06325 µM); 0.738 with Entinostat + AZD7762 (first compound 0.2 µM); 0.522 with Entinostat + AZD7762 (first compound 0.6325 µM). Besides, the relative viability came out at 0.231 with Entinostat + AZD7762 (first compound 2 µM); 1.14 with Entinostat + Olaparib (first compound 0.02 µM); 1.12 in the test with Entinostat + Olaparib (first compound 0.06325 µM); 1.04 with Entinostat + Olaparib (first compound 0.2 µM); 0.663 with Entinostat + Olaparib (first compound 0.6325 µM); 0.456 with Entinostat + Olaparib (first compound 2 µM).
In the case of PC-14, the relative viability turned out to be 0.758 in test [1] (first compound 0.02 µM); 0.932 in test [1] (first compound 0.06325 µM); 0.682 in test [1] (first compound 0.2 µM); 0.633 in test [1] (first compound 0.6325 µM); 0.229 in test [1] (first compound 2 µM); 0.796 with SGI-1776 + Trametinib (first compound 0.08 µM). The relative viability was 0.582 with SGI-1776 + Trametinib (first compound 0.8 µM); 0.384 with SGI-1776 + Trametinib (first compound 2.53 µM); 0.0529 with SGI-1776 + Trametinib (first compound 8 µM); 0.577 in the test with Entinostat + AZD7762 (first compound 0.02 µM); 0.364 with Entinostat + AZD7762 (first compound 0.06325 µM); 0.397 in the test with Entinostat + AZD7762 (first compound 0.2 µM). Further, the relative viability with Entinostat + AZD7762 (first compound 0.6325 µM) is 0.165; with Entinostat + AZD7762 (first compound 2 µM), 0.0725; with Entinostat + Olaparib (first compound 0.02 µM), 0.291; in the test with Entinostat + Olaparib (first compound 0.06325 µM) it was 0.294; in the test with Entinostat + Olaparib (first compound 0.2 µM), 0.321; with Entinostat + Olaparib (first compound 0.6325 µM), 0.104. The relative viability in the test with Entinostat + Olaparib (first compound 2 µM) came out at 0.0475.
RERF-LC-KJ: the relative viability in test [1] (first compound 0.02 µM) was 0.808; in test [1] (first compound 0.06325 µM), 0.971; in test [1] (first compound 0.2 µM), 0.91; in test [1] (first compound 0.6325 µM) it was 0.893; in test [1] (first compound 2 µM) it was 0.689; with SGI-1776 + Trametinib (first compound 0.08 µM) it was 0.917. For the same cell line, the relative viability with SGI-1776 + Trametinib (first compound 0.8 µM) worked out at 0.843; with SGI-1776 + Trametinib (first compound 2.53 µM) it was 0.722; in the test with SGI-1776 + Trametinib (first compound 8 µM), 0.707; with Entinostat + AZD7762 (first compound 0.02 µM), 1.12; with Entinostat + AZD7762 (first compound 0.06325 µM), 1.07; with Entinostat + AZD7762 (first compound 0.2 µM), 0.748. Moreover, the relative viability turned out to be 0.707 in the test with Entinostat + AZD7762 (first compound 0.6325 µM); 0.329 with Entinostat + AZD7762 (first compound 2 µM); 0.901 with Entinostat + Olaparib (first compound 0.02 µM); 0.903 with Entinostat + Olaparib (first compound 0.06325 µM); 0.795 with Entinostat + Olaparib (first compound 0.2 µM); 0.373 with Entinostat + Olaparib (first compound 0.6325 µM). In addition, the relative viability with Entinostat + Olaparib (first compound 2 µM) is 0.282.
With SW 900, the relative viability in test [1] (first compound 0.02 µM) was 0.596; in test [1] (first compound 0.06325 µM), 0.965; in test [1] (first compound 0.2 µM) it was 0.807; in test [1] (first compound 0.6325 µM), 0.583; in test [1] (first compound 2 µM), 0.513; with SGI-1776 + Trametinib (first compound 0.08 µM), 0.855. Also, the relative viability in the test with SGI-1776 + Trametinib (first compound 0.8 µM) came to 0.76; in the test with SGI-1776 + Trametinib (first compound 2.53 µM) it was 0.653; with SGI-1776 + Trametinib (first compound 8 µM), 0.724; with Entinostat + AZD7762 (first compound 0.02 µM), 0.723; with Entinostat + AZD7762 (first compound 0.06325 µM), 0.699; with Entinostat + AZD7762 (first compound 0.2 µM) it was 0.726. For the same cell line, the relative viability with Entinostat + AZD7762 (first compound 0.6325 µM) stood at 0.488; with Entinostat + AZD7762 (first compound 2 µM), 0.268; in the test with Entinostat + Olaparib (first compound 0.02 µM), 0.857; in the test with Entinostat + Olaparib (first compound 0.06325 µM), 0.815; with Entinostat + Olaparib (first compound 0.2 µM), 0.902; in the test with Entinostat + Olaparib (first compound 0.6325 µM), 0.616. Also, the relative viability with Entinostat + Olaparib (first compound 2 µM) amounted to 0.355.
